Test results from patent publication US20040077617A1, “Fused cycloalkyl amides and acids and their therapeutic applications” (priority 2002, published 2004).

Columns and labels:
CD-1 mice [1] = assay: Maximal Electroshock Procedure (protection from tonic seizures); assay type: in vivo; settings: Mus musculus, po; maximal electroshock (50 mA, 0.4 second, corneal electrodes); male CD-1 mice; p.o. 30 minutes prior to stimulation; PROBIT analysis; read-out: ED50 (dose at which 50% of the mice were protected from tonic seizures)
Experimental: (§1) Adult, male, CD-1 mice (22-25 grams) were obtained from Charles River Laboratories (Portage, Mich.) and housed at Abbott Laboratories (Abbott Park) under standard lighting conditions of 12 hours on/12 hours off, with lights on at 6 a.m. Food and water were provided ad libitum and mice weighed 25-35 grams at the time of testing.
(§2) Compounds were prepared for oral administration by suspending them in a vehicle of 100 μL Tween® 80 per mL hydroxypropyl methylcellulose (2 mg/mL, Abbott Laboratories). Compound solutions were administered at a volume of 10 mL/kg, p.o.
Maximal Electroshock Procedure:
The method used was similar to that of E.A. Swinyard, General principles: Experimental selection, quantification and evaluation of anti-convulsants, Anti-epileptic Drugs, Third Edition, R. Levey, et al., Editors. 1989, Raven Press Ltd: New York. Mice were pretreated orally with compounds of the present invention 30 minutes prior to electrical stimulation. Electrical stimulation consisted of pulsed electrical current (50 mA, 0.4 second duration, pulse width 0.5 msec, 60 pulses/sec) applied via corneal electrodes to induce seizure. The stimulation was delivered with an ECT Unit (Ugo Basile #7801). […] The percent protection from tonic seizures was calculated by dividing the number of protected mice by the total number in the group. […]

CD-1 mice [2] = assay: Subcutaneous pentylenetetrazole (PTZ) Seizure Procedure; assay type: in vivo; settings: Mus musculus; subcutaneous PTZ 85 mg/kg; male CD-1 mice; p.o. 30 minutes prior to PTZ; observed 15 minutes; linear regression; read-out: ED50 (dose at which 50% of the mice were protected from tonic seizures)
Experimental: as §1, §2
Subcutaneous pentylenetetrazole (PTZ) Seizure Procedure:
The method used was similar to that of E. A. Swinyard, General principles: Experimental selection, quantification and evaluation of anti-convulsants, Anti-epileptic Drugs, Third Edition, R. Levey, et al., Editors. 1989, Raven Press Ltd: New York. During the experiment the mice were housed individually in clear polycarbonate cages for observation. […] Seizures were induced by the subcutaneous injection of pentylenetetrazole (PTZ, 85 mg/kg) just below the nape of the neck. […] A total of 20 mice were used in each group. The ED50for the compounds were calculated using linear regression and represent the dose at which 50% of the mice were protected from tonic seizures.

SMILES: CC1(C)[C@@H]2CC3[C@H](C(=O)O)[C@@]3(C)C[C@@H]21 (stereo partly drawn) (hydrate or solvate) [Example 1, (1S,3S,4S,7R)-3,8,8-trimethyltricyclo[5.1.0.0^3,5]octane-4-carboxylic acid]
- melting point: 86 °C

SMILES: CC1(C)[C@@H]2CC3[C@H](C(N)=O)[C@@]3(C)C[C@@H]21 (stereo partly drawn) [Example 3, (1S,3S,4S,7R)-3,8,8-trimethyltricyclo[5.1.0.0^3,5]octane-4-carboxamide]
- melting point: 121.5 to 122.5 °C

SMILES: CC1(C)[C@@H]2CC3[C@H](C(=O)NCC(N)=O)[C@@]3(C)C[C@@H]21 (stereo partly drawn) [Example 4, (1S,3S,4S,7R)-N-(2-amino-2-oxoethyl)-3,8,8-trimethyltricyclo[5.1.0.0^3,5]octane-4-carboxamide]
- melting point: 169.2 to 169.7 °C

SMILES: CCCC(CCC)C(=O)O [Valproate]
- ED50 (CD-1 mice [1]): 1200 µmol/kg
- ED50 (CD-1 mice [2]): 1800 µmol/kg
